Among the data in patent US20260216348A1, “IRAK DEGRADATION AGENT AND USE THEREOF” (Increland, priority 2023, published 2026) are IC50 values, retold here.

SMILES strings stand for the structures.

This experiment deals with LPS/IL-1β-induced IL-6 secretion in human peripheral blood mononuclear cells (PBMCs). Briefly: Inhibition of LPS/IL-1β-induced IL-6 secretion in human PBMCs (IL-6 ELISA). It counts as cell-based. The conditions noted are these: PBMC, LPS 10 ng/mL + IL-1β 20 ng/mL, 24 h pre-incubation, 20 h stimulation. The protocol: This experiment was carried out in RPMI 1640 medium containing 10% FBS and 1% penicillin/streptomycin, with each of the compounds at an initial test concentration of 1 μM.
The compound was dissolved in DMSO to prepare a stock solution, which was serially diluted into some working solutions with a 5-fold concentration gradient using the culture medium and then added to a 96-well plate at 10 μL per well. PBMCs (Batch No.: P122101102C; Milecell Biotechnology Inc.) were counted and diluted to a cell concentration of about 1.3×10^6 cells/mL, and then added to the aforementioned compound-containing 96-well plate at 150 μL per well. The system was mixed well and incubated in a 5% CO2 incubator at 37° C. for 24 h. Then 5 μL of LPS (final concentration: 10 ng/mL) and 5 μL of IL-1β (final concentration: 20 ng/mL) were added to each well, respectively, and the culture was continued for 20 h in a 5% CO2 incubator at 37° C. After incubation, the 96-well plate was centrifuged at 2000 rpm for 4 min. The supernatant was collected and diluted 200-fold, then detected using an IL-6 ELISA kit. The OD450 values were read, and converted to IL-6 concentrations based on a standard curve. The dose-response curves were fitted using GraphPad 8.0 to calculate the IC50 values.
Broadly, the IC50 is the point on the concentration scale where inhibition reaches its midpoint. `C[C@@H]1CN(c2cc3nn([C@H]4CC[C@H](CN5CCN(c6nc7ccc(N8CCC(=O)NC8=O)cc7s6)CC5)CC4)cc3cc2NC(=O)c2cnn3cccnc23)CCO1` [TM-57]: the IC50 was found to be 10.2 nM.
For `C[C@H]1CN(C[C@H]2CC[C@H](n3cc4cc(NC(=O)c5cnn6cccnc56)c(N(C)C)cc4n3)CC2)CCN1c1nc2ccc(N3CCC(=O)NC3=O)cc2s1` [TM-66], the IC50 was 19.6 nM.
As to `CN(C)c1cc2nn([C@H]3CC[C@H](CN4CCN(c5nc6cc(F)c(N7CCC(=O)NC7=O)cc6o5)CC4)CC3)cc2cc1NC(=O)c1cnn2cccnc12` [TM-85], the IC50 amounted to 8.41 nM.
For `CN(C)c1cc2nn([C@H]3CC[C@H](CN4CCN(c5nc6cc(N7CCC(=O)NC7=O)ccc6o5)CC4)CC3)cc2cc1NC(=O)c1cnn2cccnc12` [TM-145] the value was 2.62 nM.
`C[C@@H]1CN(c2cc3nn([C@H]4CC[C@H](CN5CCC(n6cc7ccc(C8CCC(=O)NC8=O)cc7n6)CC5)CC4)cc3cc2NC(=O)c2cnn3cccnc23)CCO1` (some centres unmarked) [TM-48]: the half-maximal inhibitory concentration (IC50) amounted to 1.61 nM.
In the case of `CN(C)c1cc2nn([C@H]3CC[C@H](CN4C5CCC4CN(c4nc6ccc(N7CCC(=O)NC7=O)cc6o4)C5)CC3)cc2cc1NC(=O)c1cnn2cccnc12` [TM-146], the IC50 stood at 44.1 nM.
Regarding `CN(C)c1cc2nn([C@H]3CC[C@H](CN4CCN(c5nc6ccc(N7CCC(=O)NC7=O)cn6n5)CC4)CC3)cc2cc1NC(=O)c1cnn2cccnc12` [TM-110], the IC50 stood at 21.6 nM.
With `CN(C)c1cc2nn([C@H]3CC[C@H](CN4CC5(CCN(c6nc7ccc(N8CCC(=O)NC8=O)cn7n6)CC5)C4)CC3)cc2cc1NC(=O)c1cnn2cccnc12` [TM-148] the figure was 11.6 nM.
As to `CN(C)c1cc2nn(C3CCN(C[C@H]4CC[C@H](n5cc6cc(N7CCC(=O)NC7=O)ccc6n5)CC4)CC3)cc2cc1NC(=O)c1cnn2cccnc12` [TM-53], the IC50 was 6.14 nM.
Turning to `CN(C)c1cc2nn([C@H]3CC[C@H](CN4CCN(c5nc6ccc(N7CCC(=O)NC7=O)cc6s5)CC4)CC3)cc2cc1NC(=O)c1cnn2cccnc12` [TM-55], the IC50 came to 1.61 nM.
Take `O=C1CCC(c2ccc3cn(C4CCN(C[C@H]5CC[C@H](n6cc7cc(NC(=O)c8cnn9cccnc89)c(N8CCOCC8)cc7n6)CC5)CC4)nc3c2)C(=O)N1` (some centres unmarked) [TM-1]: the IC50 worked out at 5.86 nM.
`O=C1CCC(c2ccc3nn(C4CCN(C[C@H]5CC[C@H](n6cc7cc(NC(=O)c8cnn9cccnc89)c(N8CCOCC8)cc7n6)CC5)CC4)cc3c2)C(=O)N1` (some centres unmarked) [TM-2]: the half-inhibitory concentration (IC50) was 5.07 nM.
Take `C[C@@H]1CN(c2cc3nn([C@H]4CC[C@H](CN5CCC(n6cc7ccc(N8CCC(=O)NC8=O)cc7n6)CC5)CC4)cc3cc2NC(=O)c2cnn3cccnc23)CCO1` [TM-45]: the IC50 came to 8.81 nM.
In the case of `C[C@@H]1CN(c2cc3nn([C@H]4CC[C@H](CN5CC6CN(c7nc8ccc(N9CCC(=O)NC9=O)cc8s7)CC6C5)CC4)cc3cc2NC(=O)c2cnn3cccnc23)CCO1` (some centres unmarked) [TM-62], the IC50 amounted to 2.48 nM.
For `CN(C)c1cc2nn(C3CCC(CN4CC5CN(c6nc7ccc(N8CCC(=O)NC8=O)cc7s6)CC5C4)CC3)cc2cc1NC(=O)c1cnn2cccnc12` (centres unmarked) [TM-60], the IC50 came out at 1.94 nM.
With `C[C@@H]1CN(c2cc3nn(C4CCN(CC5CCC(n6cc7cc(C8CCC(=O)NC8=O)ccc7n6)CC5)CC4)cc3cc2NC(=O)c2cnn3cccnc23)CCO1` (some centres unmarked) [TM-49] the figure was 1.33 nM; with `CN(C)c1cc2nn([C@H]3CC[C@H](CN4C[C@@H]5C[C@H]4CN5c4nc5ccc(N6CCC(=O)NC6=O)cc5s4)CC3)cc2cc1NC(=O)c1cnn2cccnc12` [TM-74], 0.86 nM.
In the case of `CN(C)c1cc2nn([C@H]3CC[C@H](CN4CCC(C5Nc6cc(N7CCC(=O)NC7=O)ccc6C5=O)CC4)CC3)cc2cc1NC(=O)c1cnn2cccnc12` (some centres unmarked) [TM-144], the IC50 was determined as 38.4 nM.
Take `CN(C)c1cc2nn([C@H]3CC[C@H](CN4CCN(c5nc6ccc(N7CCC(=O)NC7=O)cc6o5)CC4)CC3)cc2cc1NC(=O)c1cnn2cccnc12` [TM-75]: the 50% inhibitory concentration (IC50) worked out at 13.2 nM.
As for `C[C@@H]1CN(c2cc3nn([C@H]4CC[C@H](CN5CC6CN(c7nc8cc(N9CCC(=O)NC9=O)ccc8s7)CC6C5)CC4)cc3cc2NC(=O)c2cnn3cccnc23)CCO1` (some centres unmarked) [TM-63], the IC50 turned out to be 8.91 nM.
Take `CN(C)c1cc2nn([C@H]3CC[C@H](CN4CCN(c5nc6cc(N7CCC(=O)NC7=O)ccc6s5)CC4)CC3)cc2cc1NC(=O)c1cnn2cccnc12` [TM-54]: the IC50 stood at 3.06 nM.
Consider `C[C@@H]1CN(c2cc3nn([C@H]4CC[C@H](CN5CCC(n6cc7cc(C8CCC(=O)NC8=O)ccc7n6)CC5)CC4)cc3cc2NC(=O)c2cnn3cccnc23)CCO1` (some centres unmarked) [TM-47], for which the concentration for half-maximal inhibition (IC50) worked out at 3.06 nM.
As for `CN(C)c1cc2nn([C@H]3CC[C@H](CN4CCC(c5cc6cc(N7CCC(=O)NC7=O)ccn6n5)CC4)CC3)cc2cc1NC(=O)c1cnn2cccnc12` [TM-175], the IC50 was determined as 13.2 nM.
On to `C[C@@H]1CN(C[C@H]2CC[C@H](n3cc4cc(NC(=O)c5cnn6cccnc56)c(N(C)C)cc4n3)CC2)CC[C@H]1n1cc2ccc(N3CCC(=O)NC3=O)cc2n1` [TM-26], for which the half-inhibitory concentration (IC50) was 0.54 nM.
Consider `CN(C)c1cc2nn(C3CCN(C[C@H]4CC[C@H](n5cc6ccc(N7CCC(=O)NC7=O)cc6n5)CC4)CC3)cc2cc1NC(=O)c1cnn2cccnc12` [TM-52], for which the IC50 came out at 18.7 nM.
With `C[C@@H]1CN(C[C@H]2CC[C@H](n3cc4cc(NC(=O)c5cnn6cccnc56)c(N(C)C)cc4n3)CC2)CCN1c1nc2ccc(N3CCC(=O)NC3=O)cc2s1` [TM-65], the IC50 was found to be 2.26 nM.
For `O=C1CCN(c2ccc3nn(C4CCN(C[C@H]5CC[C@H](n6cc7cc(NC(=O)c8cnn9cccnc89)c(N8CCOCC8)cc7n6)CC5)CC4)cc3c2)C(=O)N1` [TM-44] the value was 10.2 nM; for `C[C@@H]1CN(c2cc3nn(C4CCN(CC5CCC(n6cc7ccc(C8CCC(=O)NC8=O)cc7n6)CC5)CC4)cc3cc2NC(=O)c2cnn3cccnc23)CCO1` (some centres unmarked) [TM-50], 4.65 nM; for `C[C@@H]1CN(c2cc3nn([C@H]4CC[C@H](CN5CCN(c6nc7cc(N8CCC(=O)NC8=O)ccc7s6)CC5)CC4)cc3cc2NC(=O)c2cnn3cccnc23)CCO1` [TM-56], 8.81 nM.
As to `CN(C)c1cc2nn([C@H]3CC[C@H](CN4C[C@H]5C[C@@H]4CN5c4nc5ccc(N6CCC(=O)NC6=O)cc5o4)CC3)cc2cc1NC(=O)c1cnn2cccnc12` [TM-83], the IC50 came out at 44.1 nM.
On to `C[C@@H]1CN(c2cc3nn([C@H]4CC[C@H](CN5CCC(n6cc7cc(N8CCC(=O)NC8=O)ccc7n6)CC5)CC4)cc3cc2NC(=O)c2cnn3cccnc23)CCO1` [TM-46], for which the IC50 is 7.46 nM.
In the case of `CN(C)c1cc2nn([C@H]3CC[C@H](CN4CCCN(c5nc6ccc(N7CCC(=O)NC7=O)cc6s5)CC4)CC3)cc2cc1NC(=O)c1cnn2cccnc12` [TM-150], the IC50 was 6.94 nM.
Consider `CN(C)c1cc2nn([C@H]3CC[C@H](CN4CC5(CCN(c6nc7cc(F)c(N8CCC(=O)NC8=O)cc7o6)CC5)C4)CC3)cc2cc1NC(=O)c1cnn2cccnc12` [TM-90], for which the IC50 was 1.44 nM.
As for `CN(C)c1cc2nn(C3CCN(CC4CCN(c5nc6cc(N7CCC(=O)NC7=O)ccc6s5)CC4)CC3)cc2cc1NC(=O)c1cnn2cccnc12` [TM-128], the IC50 amounted to 36.6 nM.
In the case of `CN(C)c1cc2nn(C3CCC(CN4CC5CN(c6nc7cc(N8CCC(=O)NC8=O)ccc7s6)CC5C4)CC3)cc2cc1NC(=O)c1cnn2cccnc12` (centres unmarked) [TM-61], the half-inhibitory concentration (IC50) is 1.15 nM.
